Source: patent US20260231929A1, “SOLVENT COMPOSITION FOR AGROCHEMICAL FORMULATIONS” (SPECIALTY OPERATIONS FRANCE, priority 2023, published 2026)

Assay: Test 1: Maximal solubility of an active in a solvent system (visual observation)
Type: physicochemical
Excerpt: The maximal solubility of an active or a combo of actives in a solvent system is characterized by visual observation. At a given concentration, if the mixture is limpid (with the naked eye), the active ingredient(s) is (are) considered to be soluble in the solvent system at this concentration. However, if a sedimentation of the active ingredient(s) appears, it is not soluble anymore in the solvent system and the maximal solubility is reached. The maximal solubility is thus defined as the maximum amount of active ingredient(s) that can be dissolved in the solvent system, equal to the amount at which the mixture remains limpid (with the naked eye). Each active ingredient or combo is added little by little in different solvent systems. The solutions are magnetically stirred until complete dissolution. Then an additional amount of active ingredient is added and this operation is repeated until the last part of active ingredient added could not be dissolved anymore, taking care to stir the solution after each addition of active ingredient.

SMILES: CCCCCCCCCC(=O)N(C)C [Rhodiasolv ® ADMA 10, N,N-dimethyldecanamide]
- maximal solubility of Oxyfluorfen (oxyfluorfen (solo) dissolved in the solvent system): 49.0 g/100 g of solvent
- maximal solubility of Picoxystrobin (picoxystrobin (solo) dissolved in the solvent system): 30.0 g/100 g of solvent
